Measured values as given in article PMC10744391, “Sulfated Triterpene Glycosides from the Far Eastern Sea Cucumber Cucumaria djakonovi: Djakonoviosides C1, D1, E1, and F1; Cytotoxicity against Human Breast Cancer Cell Lines; Quantitative Structure–Activity Relationships” (Marine Drugs, 2023).
“Also recorded” adds a separate entry of the source. Structures can show the parent of a compound that is named as a salt. Where two headings read alike, the source gives them in different places.

How the values were obtained:
Format in all cases: cell-based
in vitro = conditions: human
[1] = tested on: triple-negative MDA-MB-231 human breast cancer cell line; test: cells; conditions: for IC50: read-out: Cytotoxicity, IC50, MDA-MB-231; for Selectivity Index (SI), MDA-MB-231: ratio of IC50 for healthy (MCF-10A) and cancer cells
[2] = tested on: T-47D human breast cancer cell line; test: cells; conditions: for IC50: read-out: Cytotoxicity, IC50, T-47D; for Selectivity Index (SI), T-47D: ratio of IC50 for healthy (MCF-10A) and cancer cells
human erythrocytes = test: Hemolytic activity against human erythrocytes; conditions: for HC50: Erythrocyte, read-out: ED50, Erythrocytes (hemolytic activity); for hemolytic activity (in words): concentration range up to 50 µM
Procedure: Human blood (B(III) Rh+) was used to obtain erythrocytes by centrifuging 450× g three times for 5 min with phosphate-buffered saline (PBS) (pH 7.4) at 4 °C on centrifuge LABOFUGE 400R (Heraeus, Hanau, Germany). Ice-cold PBS (pH 7.4) was used for resuspension of erythrocytes residue to a final optical density of 1.5 at 700 nm, which was kept on ice. Then, 20 µL of tested compound solution or control—djakonovioside A1 [5]—were added to 180 µL of erythrocyte suspension in V-bottom 96-well plates and exposed for 1 h at 37 °C. Next, centrifugation at 900× g for 10 min on laboratory centrifuge LMC-3000 (Biosan, Riga, Latvia), led to layers’ separation, and 100 µL of supernatant was carefully decanted and transferred into new flat-plate each. The values of erythrocyte lysis were measured on microplate photometer Multiskan FC (Thermo Fisher Scientific, Waltham, MA, USA) at λ = 570 nm as hemoglobin concentration in supernatant. The effective dose, causing lysis of 50% erythrocytes (ED50), was calculated with SigmaPlot 14.0 software. All the experiments were carried out in triple repetitions, p ≤ 0.05.

[3] = tested on: MCF-7 human breast cancer cell line; test: cells; conditions: for IC50: read-out: Cytotoxicity, IC50, MCF-7; for Selectivity Index (SI), MCF-7: ratio of IC50 for healthy (MCF-10A) and cancer cells
[4] = human erythrocytes, 1 h at 37 °C, dose causing lysis of 50% erythrocytes

SMILES | IC50 at 24 h (in vitro) [µM] | IC50 ([1]; Homo sapiens, MDA-MB-231, 24 h) [µM] | IC50 ([2]; Homo sapiens, T47D, 24 h) [µM] | HC50 (human erythrocytes; [4]) [µM] | hemolytic activity (in words) (human erythrocytes; human erythrocytes) | IC50 ([3]; Homo sapiens, MCF7, 24 h) [µM] | IC50 ([1]; MTT, 24 h incubation) [µM] | Selectivity Index (SI), MDA-MB-231 [1] | IC50 ([2]; MTT, 24 h incubation) [µM] | Selectivity Index (SI), T-47D [2] | ED50, Erythrocytes (hemolytic activity) (human erythrocytes; [4]) [µM] | IC50 ([3]; MTT, 24 h incubation) [µM] | Selectivity Index (SI), MCF-7 [3] | HC50 (human erythrocytes; Homo sapiens, 1 h) [µM] | hemolytic activity (in words) (human erythrocytes; human erythrocytes, listed as D1) | hemolytic activity (in words) (human erythrocytes; human erythrocytes, listed as Djakonovioside D1) | hemolytic activity (in words) (human erythrocytes; human erythrocytes, listed as Frondoside A2-3)
COC1C(O)C(COS(=O)(=O)O)OC(OC2C(O)C(COS(=O)(=O)O)OC(OC3C(C)OC(OC4C(OC5CCC6(C)C7CCC8(C)C(C(C)=O)CCC8(C)C7=CCC6C5(C)C)OCC(OS(=O)(=O)O)C4O)C(OC4OCC(O)C(O)C4O)C3O)C2O)C1O (stereo not drawn) [koreoside A] | > 50 | > 50 | > 50 | > 50 | did not show hemolytic or cytotoxic activity; also recorded: complete loss of the activity | > 50 | – | – | – | – | – | – | – | – | – | – | –
CO[C@@H]1[C@@H](O)[C@H](O[C@@H]2[C@@H](O)[C@H](O[C@H]3[C@H](O)[C@@H](O)[C@H](O[C@H]4[C@H](O[C@H]5CC[C@]6(C)[C@@H]7CCC89C(=O)O[C@@](C)(C[C@@H](O)CC(C)C)[C@H]8[C@@H](OC(C)=O)C[C@@]9(C)C7=CC[C@H]6C5(C)C)OC[C@@H](OS(=O)(=O)O)[C@@H]4O)O[C@@H]3C)OC[C@H]2O)O[C@H](CO)[C@H]1O (stereo partly drawn) [djakonovioside A1, reference compound] | – | – | – | – | – | – | 12.1 ± 0.54 | 1.45 | 15.2 ± 0.96 | 1.15 | 2.52 ± 0.23 | 26.43 ± 0.14 | 0.66 | – | – | – | –
COC1C(O)C(COS(=O)(=O)O)OC(OC2C(O)C(COS(=O)(=O)O)OC(OC3C(C)OC(OC4C(OC5CCC6(C)C7=CCC8(C)C(C(C)=O)CCC8(C)C7CCC6C5(C)C)OCC(OS(=O)(=O)O)C4O)C(OC4OCC(O)C(O)C4O)C3O)C2O)C1O (stereo not drawn) [isokoreoside A] | > 50 | > 50 | > 50 | 17.4 ± 0.57 | moderate hemolytic activity; also recorded: low hemolytic activity | > 50 | – | – | – | – | – | – | – | – | – | – | –
C=C(C)CCCC1(C)OC(=O)C23CCC4C(=CCC5C(C)(C)C(OC6OCC(OS(=O)(=O)O)C(O)C6OC6OC(CO)C(OC7OC(CO)C(O)C(OC8OC(CO)C(O)C(OC)C8O)C7O)C(O)C6OC6OCC(O)C(O)C6O)CCC45C)C2(C)CC(OC(C)=O)C13 (stereo not drawn) [okhotoside A2-1] | 12.2 ± 0.16 | 12.6 ± 0.16 | 11.9 ± 0.42 | 1.53 ± 0.14 | – | 39.81 ± 0.18 | – | 0.97 | – | 1.03 | – | – | 0.31 | – | – | – | –
COC1C(O)C(COS(=O)(=O)O)OC(OC2C(O)C(COS(=O)(=O)O)OC(OC3C(C)OC(OC4C(OC5CCC6(C)C7CCC8(C)C(C(C)(O)C(=O)CC=C(C)C)CCC8(C)C7=CCC6C5(C)C)OCC(OS(=O)(=O)O)C4O)C(OC4OCC(O)C(O)C4O)C3O)C2O)C1O [djakonovioside F1, 3β-O-{6-O-sodium sulfate-3-O-methyl-β-D-glucopyranosyl-(1→3)-6-O-sodium sulfate-β-D-glucopyranosyl-(1→4)-[(1→2)-β-D-xylopyranosyl]-β-D-quinovopyranosyl-(1→2)-4-O-sodium sulfate-β-D-xylopyranosyl}-(20R)-hydroxy-22-oxo-lanosta-7,24-dien] | 23.2 ± 0.78 | 20 ± 0.63 | 22.5 ± 1.78 | – | high hemolytic effect | 36.8 ± 0.73 | – | 1.16 | – | 1.02 | – | – | 0.63 | 0.51 ± 0.01 | – | – | –
C=C(C)CCCC1(C)OC(=O)C23CCC4C(=CCC5C(C)(C)C(OC6OCC(OS(=O)(=O)O)C(O)C6OC6OCC(OC7OC(CO)C(O)C(OC8OC(CO)C(O)C(OC)C8O)C7O)C(O)C6OC6OCC(O)C(O)C6O)CCC45C)C2(C)CC(OC(C)=O)C13 (stereo not drawn) [djakonoviosides C1] | – | – | – | – | slightly lower but significant | – | – | – | – | – | – | – | – | – | – | – | –
COC1C(O)C(CO)OC(OC2C(O)C(CO)OC(OC3C(CO)OC(OC4C(OC5CCC6(C)C7CCC89C(=O)OC(C)(CCC=C(C)C)C8C(OC(C)=O)CC9(C)C7=CCC6C5(C)C)OCC(OS(=O)(=O)O)C4O)C(OC4OCC(O)C(O)C4O)C3O)C2O)C1O [djakonovioside D1, 3β-O-{3-O-methyl-β-D-glucopyranosyl-(1→3)-β-D-glucopyranosyl-(1→4)-[(1→2)-β-D-xylopyranosyl]-β-D-glucopyranosyl-(1→2)-4-O-sodium sulfate-β-D-xylopyranosyl}-16β-acetoxyholosta-7,24-dien] | > 50 | > 50 | > 50 | 7.74 ± 0.37 | – | > 50 | – | – | – | – | – | – | – | – | slightly lower but significant | moderate hemolytic activity; also recorded: slightly less hemolytic | –
COC1C(O)C(CO)OC(OC2C(O)C(CO)OC(OC3C(C)OC(OC4C(OC5CCC6(C)C7CCC89C(=O)OC(C)(CC=CC(C)(C)O)C8C(OC(C)=O)CC9(C)C7=CCC6C5(C)C)OCC(OS(=O)(=O)O)C4O)C(OC4OCC(O)C(O)C4O)C3O)C2O)C1O (stereo not drawn) [frondoside A2-3] | > 50 | > 50 | > 50 | > 50 | absence of the activity | > 50 | – | – | – | – | – | – | – | – | – | – | did not show hemolytic or cytotoxic activity
